From patent US7671258B2, “Surfactant peptide nanostructures, and uses thereof” (Massachusetts Institute of Technology, priority 2001, dated 2010)
Residues, ends and D or L forms follow the SMILES beside them.

Test: Cryo-transmission electron microscopy of aqueous peptide solutions (self-assembly)
Format: physicochemical
Conditions: Cryo-TEM, aqueous solution 5 mg/ml, pH 7
Experimental: Cryo-transmission electron microscopy experiments were performed on aqueous solution of the different peptides at a concentration of 5 mg/ml. In order to solubilize these peptides in water, it was necessary to deprotonate the carboxylic groups by adjusting the pH with a solution of sodium hydroxide 0.1N. The oligopeptides investigated start to be soluble in water at pH 5 to 6, depending on the amino acid sequence. All the experiments presented in this work were carried out using peptide solutions at pH 7. […] The cylindrical assemblers present a three-dimensional transient network somehow similar to flexible polymers in their semidilute or concentrated solutions^22. It should be pointed out that, in the electron micrographs, only a two-dimensional projection of the peptides nanotubes could be imaged. The network below and above a defined point in the space could be relatively distant in three dimensions, while appearing superimposed in the two-dimensional projection. […] These self-assemblies have high axial ratios and extend in length to several tens of micrometers. Additionally, one can easily identify many three-fold junctions or branchings connecting the nanotubes and thus forming the final network. […] Alternatively, two nanotubes could fuse together to form a tentative 4-arm branch. It has been shown that this kind of branching is energetically unstable and, thus, those observed in FIG. 3 are most likely due to the 2-D representation of a spatial network.
In fact, one can easily recognize nanotubes of about 50 nm diameter linked by an increased numbers of three-fold junction. As a result, the branches are more abundant than those observed in the samples VVVVVVD (V6D) (SEQ ID NO: 36), […] (SEQ ID NO: 38) and AAAAAAD (A6D) (SEQ ID NO: 37). They have also a smaller axial ratio and a much smaller average diameter of about 10 to 15 nm. […] (SEQ ID NO: 39) is the most hydrophobic compound with the tail constituted of six leucines. […] These molecular assemblies are very similar to threadlike micellar systems made from traditional amphiphilic molecules such as cetyltrimethylammonium bromide (CTAB)^29-30. It should be noted that a large number of vesicle-like spherical assemblies also appear in the TEM micrograph.
Cryo-TEM micrograph at high resolution provides a detailed structure of the peptide nanotubes formed by AAAAAAD (SEQ ID NO: 35) (see FIG. 4). […] Additionally, helical pitches between 150 and 200 nm, depending on the nanotubes diameter, were also observed. Similar results have been documented with hollow cylinders formed of bilayer membrane of diacetylenic lipids^31. Theories based on molecular chirality have been developed to explain the presence of helical markings that wind around the cylinders^32.

| Structure (SMILES) | morphology of the self-assemblies | morphology of the self-assemblies (listed as AAAAAAD) | nanotube diameter |
| --- | --- | --- | --- |
| CC(=O)N[C@@H](CC(C)C)C(=O)N[C@@H](CC(C)C)C(=O)N[C@@H](CC(C)C)C(=O)N[C@@H](CC(C)C)C(=O)N[C@@H](CC(C)C)C(=O)N[C@@H](CC(C)C)C(=O)N[C@@H](CC(=O)O)C(=O)N[C@@H](CC(=O)O)C(=O)O [L6D2, [Acetyl]-LLLLLLDD-CO2] (Ac-LLLLLLDD-OH) | does not exhibit any nanotubular structures but rather a network of entangled rodlike micelles |  |  |
| CC(=O)N[C@@H](C)C(=O)N[C@@H](C)C(=O)N[C@@H](C)C(=O)N[C@@H](C)C(=O)N[C@@H](C)C(=O)N[C@@H](C)C(=O)N[C@@H](CC(=O)O)C(=O)O [A6D, [Acetyl]-AAAAAAD-CO2] (Ac-AAAAAAD-OH) | cylindrical morphologies | hollow tubular structures |  |
| CC(=O)N[C@@H](C)C(=O)N[C@@H](C)C(=O)N[C@@H](C)C(=O)N[C@@H](C)C(=O)N[C@@H](C)C(=O)N[C@@H](C)C(=O)N[C@@H](CC(=O)O)C(=O)N[C@@H](CC(=O)O)C(=O)O [A6D2, [Acetyl]-AAAAAADD-CO2] (Ac-AAAAAADD-OH) |  |  | about 50 nm |

Further lines, results first:

| morphology of the self-assemblies | morphology of the self-assemblies (listed as AAAAAAD) | nanotube diameter | Structure (SMILES) |
| --- | --- | --- | --- |
| cylindrical morphologies |  |  | CC(=O)N[C@H](C(=O)N[C@H](C(=O)N[C@H](C(=O)N[C@H](C(=O)N[C@H](C(=O)N[C@H](C(=O)N[C@@H](CC(=O)O)C(=O)N[C@@H](CC(=O)O)C(=O)O)C(C)C)C(C)C)C(C)C)C(C)C)C(C)C)C(C)C [V6D2, [Acetyl]-VVVVVVDD-CO2] (Ac-VVVVVVDD-OH) |
| cylindrical morphologies |  |  | CC(=O)N[C@H](C(=O)N[C@H](C(=O)N[C@H](C(=O)N[C@H](C(=O)N[C@H](C(=O)N[C@H](C(=O)N[C@@H](CC(=O)O)C(=O)O)C(C)C)C(C)C)C(C)C)C(C)C)C(C)C)C(C)C [V6D, [Acetyl]-VVVVVVD-CO2] (Ac-VVVVVVD-OH) |
